Series [1] addresses T1, PPAR alpha-LBD (Homo sapiens, UniProt Q07869).
T1 sequence (Q07869 239-466 limits assumed): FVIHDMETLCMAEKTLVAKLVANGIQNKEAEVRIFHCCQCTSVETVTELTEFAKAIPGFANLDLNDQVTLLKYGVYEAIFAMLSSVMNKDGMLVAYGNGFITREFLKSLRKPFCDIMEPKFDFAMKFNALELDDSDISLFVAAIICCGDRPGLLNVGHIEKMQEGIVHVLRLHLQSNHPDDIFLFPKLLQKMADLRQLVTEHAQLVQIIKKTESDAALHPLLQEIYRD
The experiment in a line: PPAR assay, PPARα. The note with it: for PPARα activation (competitive activation rate), compared with fenofibrate: sample final concentration 100 μM, positive control fenofibrate, FIGS. 5 and 6; for simultaneous activation of PPARα and PPARγ: summary of the PPARα and PPARγ assays, sample 100 μM.

The target of series [2] is T2, PPAR gamma-LBD (Homo sapiens, UniProt P37231).
T2 sequence (P37231 238-503 limits assumed): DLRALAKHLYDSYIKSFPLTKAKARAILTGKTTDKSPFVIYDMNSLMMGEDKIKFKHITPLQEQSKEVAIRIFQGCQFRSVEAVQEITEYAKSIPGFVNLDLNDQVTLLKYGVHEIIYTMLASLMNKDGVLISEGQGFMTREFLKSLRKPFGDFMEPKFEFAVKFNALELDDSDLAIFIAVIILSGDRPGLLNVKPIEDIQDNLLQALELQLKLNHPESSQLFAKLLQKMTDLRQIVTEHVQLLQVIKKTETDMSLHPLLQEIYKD
The series is described as follows: PPAR assay, PPARγ. The series is classed as binding. The note with it: sample final concentration 100 μM; positive control rosiglitazone; FIGS. 7 and 8.

“Also recorded” adds a separate entry of the source.

Regarding `COc1cc(-c2nc3ccccc3s2)ccc1O` [Compound 16, 4-(benzo[d]thiazol-2-yl)-2-methoxyphenol], in series [1], the “PPARα activation (competitive activation rate), compared with fenofibrate” value (“PPARα activation … compared with fenofibrate” for short) is on record as “very excellent PPARα activation agent compared to fenofibrate”; the “simultaneous activation of PPARα and PPARγ” value (“simultaneous activation” for short) is “simultaneously activates PPARα and PPARγ”. For the same molecule, in series [2], the “PPARγ activation (competitive activation rate), compared with rosiglitazone” value (from here on “PPARγ activation … compared with rosiglitazone”) is reported as “very excellent PPARγ activation agent compared to rosiglitazone”.

On to `CCOc1cc(-c2nc3ccccc3s2)ccc1O` [Compound 17, 4-(benzo[d]thiazol-2-yl)-2-ethoxyphenol], for which, in series [1], the “PPARα activation … compared with fenofibrate” value is given as “very excellent PPARα activation agent compared to fenofibrate”; the “simultaneous activation” value is “simultaneously activates PPARα and PPARγ”. The “PPARγ activation … compared with rosiglitazone” value in series [2] is on record as “very excellent PPARγ activation agent compared to rosiglitazone”.

On to `Oc1ccc(-c2nc3ccccc3s2)cc1Br` [Compound 26, 4-(benzo[d]thiazol-2-yl)-2-bromophenol], for which, in series [1], the “PPARα activation … compared with fenofibrate” value is on record as “the most excellent PPARα activation agent; also recorded: very excellent PPARα activation agent compared to fenofibrate”; the “simultaneous activation” value is “simultaneously activates PPARα and PPARγ”. Also, the “PPARγ activation … compared with rosiglitazone” value in series [2] is on record as “the most excellent PPARγ activation agent; also recorded: very excellent PPARγ activation agent compared to rosiglitazone”.

In the case of `Oc1ccc(-c2nc3ccccc3[nH]2)cc1` [Compound 43, 4-(1H-benzo[d]imidazol-2-yl)phenol], in series [1], the “PPARα activation … compared with fenofibrate” value is “very excellent PPARα activation agent compared to fenofibrate”; the “simultaneous activation” value was “simultaneously activates PPARα and PPARγ”. Moreover, the “PPARγ activation … compared with rosiglitazone” value in series [2] is on record as “very excellent PPARγ activation agent compared to rosiglitazone”.

Regarding `CCOc1cc(-c2nc3ccccc3[nH]2)ccc1O` [Compound 47, 4-(1H-benzo[d]imidazol-2-yl)-2-ethoxyphenol], in series [1], the “PPARα activation … compared with fenofibrate” value is reported as “very excellent PPARα activation agent compared to fenofibrate”; the “simultaneous activation” value is “simultaneously activates PPARα and PPARγ”. In addition, the “PPARγ activation … compared with rosiglitazone” value in series [2] is recorded as “very excellent PPARγ activation agent compared to rosiglitazone”.

With `COc1ccc(-c2nc3ccccc3[nH]2)c(OC)c1` [Compound 52, 2-(2,4-dimethoxyphenyl)-1H-benzo[d]imidazole], in series [1], the “PPARα activation … compared with fenofibrate” value is “very excellent PPARα activation agent compared to fenofibrate”; the “simultaneous activation” value is “simultaneously activates PPARα and PPARγ”. Further, in series [2], the “PPARγ activation … compared with rosiglitazone” value is “very excellent PPARγ activation agent compared to rosiglitazone”.

On to `Oc1ccccc1-c1nc2ccccc2[nH]1` [Compound 53, 2-(1H-benzo[d]imidazol-2-yl)phenol], for which, in series [1], the “PPARα activation … compared with fenofibrate” value is listed as “very excellent PPARα activation agent compared to fenofibrate”; the “simultaneous activation” value is “simultaneously activates PPARα and PPARγ”. Also, the “PPARγ activation … compared with rosiglitazone” value in series [2] was “very excellent PPARγ activation agent compared to rosiglitazone”.

`Oc1ccc(-c2nc3ccccc3[nH]2)cc1Br` [Compound 56, 4-(1H-benzo[d]imidazol-2-yl)-2-bromophenol]: the “PPARγ activation … compared with rosiglitazone” value in series [2] is recorded as “very excellent PPARγ activation agent compared to rosiglitazone”.

In turn, `CCOc1cc(-c2nc3cc(C(=O)O)ccc3[nH]2)ccc1O` [Compound 61, 2-(3-ethoxy-4-hydroxyphenyl)-1H-benzo[d]imidazole-5-carboxylic acid] returned a melting point of over 300 °C.

Turning to `COc1ccc(-c2nc3cc(C(=O)O)ccc3[nH]2)cc1O` [Compound 62, 2-(3-hydroxy-4-methoxyphenyl)-1H-benzo[d]imidazole-5-carboxylic acid], the melting point was in the range of 246.6 to 247.7 °C.

For `COc1ccc(-c2nc3cc(C(=O)O)ccc3[nH]2)cc1OC` [Compound 64, 2-(3,4-dimethoxyphenyl)-1H-benzo[d]imidazole-5-carboxylic acid], in series [1], the “PPARα activation … compared with fenofibrate” value is given as “very excellent PPARα activation agent compared to fenofibrate”; the “simultaneous activation” value is “simultaneously activates PPARα and PPARγ”. Moreover, the “PPARγ activation … compared with rosiglitazone” value in series [2] is reported as “very excellent PPARγ activation agent compared to rosiglitazone”.

For the molecule `COc1ccc(-c2nc3cc(C(=O)O)ccc3[nH]2)c(OC)c1` [Compound 65, 2-(2,4-dimethoxyphenyl)-1H-benzo[d]imidazole-5-carboxylic acid], in series [1], the “PPARα activation … compared with fenofibrate” value is “very excellent PPARα activation agent compared to fenofibrate”; the “simultaneous activation” value was “simultaneously activates PPARα and PPARγ”. Also, the “PPARγ activation … compared with rosiglitazone” value in series [2] is “very excellent PPARγ activation agent compared to rosiglitazone”.

In the case of `O=C(O)c1ccc2[nH]c(-c3ccccc3O)nc2c1` [Compound 66, 2-(2-hydroxyphenyl)-1H-benzo[d]imidazole-5-carboxylic acid], in series [1], the “PPARα activation … compared with fenofibrate” value is reported as “very excellent PPARα activation agent compared to fenofibrate”; the “simultaneous activation” value was “simultaneously activates PPARα and PPARγ”. Moreover, the “PPARγ activation … compared with rosiglitazone” value in series [2] is listed as “very excellent PPARγ activation agent compared to rosiglitazone”.

Regarding `COc1cc(-c2nc3cc(C(=O)O)ccc3[nH]2)cc(OC)c1OC` [Compound 67, 2-(3,4,5-trimethoxyphenyl)-1H-benzo[d]imidazole-5-carboxylic acid], in series [1], the “PPARα activation … compared with fenofibrate” value is reported as “very excellent PPARα activation agent compared to fenofibrate”; the “simultaneous activation” value was “simultaneously activates PPARα and PPARγ”. In addition, the “PPARγ activation … compared with rosiglitazone” value in series [2] was “very excellent PPARγ activation agent compared to rosiglitazone”.

`COc1cc(-c2nc3cc(C(=O)O)ccc3[nH]2)cc(OC)c1O` [Compound 68, 2-(4-hydroxy-3,5-dimethoxyphenyl)-1H-benzo[d]imidazole-5-carboxylic acid] returned a melting point of 280 to 281.4 °C.

Turning to `O=C(O)c1ccc2[nH]c(-c3ccc(O)c(Br)c3)nc2c1` [Compound 69, 2-(3-bromo-4-hydroxyphenyl)-1H-benzo[d]imidazole-5-carboxylic acid], in series [1], the “PPARα activation … compared with fenofibrate” value is “very excellent PPARα activation agent compared to fenofibrate”; the “simultaneous activation” value is “simultaneously activates PPARα and PPARγ”. Besides, in series [2], the “PPARγ activation … compared with rosiglitazone” value is given as “very excellent PPARγ activation agent compared to rosiglitazone”.

The molecule `Oc1ccc(-c2nc3cc(Cl)ccc3s2)c(O)c1` [Compound 84, 4-(5-chlorobenzo[d]thiazol-2-yl)benzene-1,3-diol] yielded a melting point of 277.9 to 280.1 °C.

`COc1ccc(-c2nc3cc(Cl)ccc3s2)cc1O` [Compound 87, 5-(5-chlorobenzo[d]thiazol-2-yl)-2-methoxyphenol] yielded a melting point of 158.2 to 158.6 °C.

With `COc1ccc(-c2nc3cc(Cl)ccc3s2)cc1OC` [Compound 89, 5-chloro-2-(3,4-dimethoxyphenyl)benzo[d]thiazole], the melting point lay in the range of 165.2 to 167.1 °C.

The molecule `Oc1cc(O)cc(-c2nc3cc(Cl)ccc3s2)c1` [Compound 90, 5-(5-chlorobenzo[d]thiazol-2-yl)benzene-1,3-diol] showed a melting point of 129.6 to 130.6 °C.

Molecule `COc1ccc(-c2nc3cc(Cl)ccc3s2)c(OC)c1` [Compound 91, 5-chloro-2-(2,4-dimethoxyphenyl)benzo[d]thiazole] showed a melting point of 138.6 to 140.3 °C.

Turning to `Oc1ccccc1-c1nc2cc(Cl)ccc2s1` [Compound 92, 2-(5-chlorobenzo[d]thiazol-2-yl)phenol], the melting point fell in the range of 194.2 to 195.7 °C.

In the case of `COc1cc(-c2nc3cc(Cl)ccc3s2)cc(OC)c1OC` [Compound 93, 5-chloro-2-(3,4,5-trimethoxyphenyl)benzo[d]thiazole], the melting point was in the range of 159.4 to 160 °C.

`c1ccc(COc2ccc(-c3nc4ccccc4s3)cc2)cc1` [Compound 107, 2-(4-(benzyloxy)phenyl)benzo[d]thiazole] gave a melting point of 166.1 to 167.2 °C.

With `FC(F)(F)c1ccc2sc(-c3ccc(OCc4ccccc4)cc3)nc2c1` [Compound 108, 2-(4-(benzyloxy)phenyl)-5-(trifluoromethyl)benzo[d]thiazole], the melting point fell in the range of 194.3 to 195.1 °C.

In turn, `Clc1ccc2sc(-c3ccc(OCc4ccccc4)cc3)nc2c1` [Compound 109, 2-(4-(benzyloxy)phenyl)-5-chlorobenzo[d]thiazole] had a melting point of 142.7 to 143.3 °C.

`c1ccc(COc2cccc(-c3nc4ccccc4s3)c2)cc1` [Compound 110, 2-(3-(benzyloxy)phenyl)benzo[d]thiazole]: the melting point was 121.5 to 122.1 °C.

Take `FC(F)(F)c1ccc2sc(-c3cccc(OCc4ccccc4)c3)nc2c1` [Compound 111, 2-(3-(Benzyloxy)phenyl)-5-(trifluoromethyl)benzo[d]thiazole]: the melting point is 93.8 to 95.1 °C.

In general, melting point refers to the temperature of the solid-liquid transition.

These data come from US8889881B2, “Compound having skin-whitening, anti-oxidizing and PPAR activities and medical use therefor” (Pusan National University Industry —University Cooperation …, priority 2011, dated 2014).
